Measured values reported in patent publication US20260125346A1, “Isoquinolinone Derivatives and 4H-Quinolizinone Derivatives and Pharmaceutical Compositions Thereof for the Treatment of Disease” (BeOne Medicines I GmbH, priority 2023, published 2026).

Legend:
WT cell line SK-BR-3 [1] = test: Cell Proliferation Assay (CellTiter-Glo), SK-BR-3; format: cell-based; details: Homo sapiens, 72 h; SK-BR-3, 3 days treatment
How it was run: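 SK-BR-3 cells treated for 3 days with compound in a 9-point series, final concentrations 10 M to 1 nM in 0.1% DMSO. Viability read by CellTiter-Glo luminescence. Relative IC50 from percent inhibition versus medium-only and DMSO controls, four-parameter logistic fit.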

[2] = target: PI3Kα (p110[H1047R]/p85) kinase (Homo sapiens, UniProt P42336, H1047R); test: PI3Kα (p110[H1047R]/p85) kinase ADP-Glo Assay; format: biochemical; details: 25 uM ATP; for selectivity: WT/H1047R: ADP-Glo Assay IC50 ratio
How it was run: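 PI3Kα H1047R/p85 pre-incubated 30 min at room temperature with PI(4,5)P2:PS substrate ([…]) and compound ([…]) in HEPES pH 7.5 buffer with MgCl2; ATP ([…]) then added for 120 min. ADP quantified by ADP-Glo luminescence; IC50 from four-parameter logistic fit.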

WT cell line SK-BR-3 [3] = test: Phospho-AKT (Ser473) Inhibition Assay (HTRF), SK-BR-3; format: cell-based; details: Homo sapiens; SK-BR-3, 1 hour treatment; read-out: p-AKT Inhibition assay (S473) IC50 SK-BR-3
How it was run: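 SK-BR-3 (PI3Kα WT) cells seeded overnight in MEM with insulin, then treated 1 h with 11-point 1:3 dilutions (10 μM to 0.1 nM, 0.1% DMSO). Lysates read for phospho-AKT Ser473 by HTRF after 4 h antibody incubation at room temperature. IC50 from 4-parameter fit, % inhibition normalized to DMSO (max) and 10 μM GDC0077 (min).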

PI3Kα (p110[H1047R]/p85) kinase, sequence (P42336 whole entry H1047R): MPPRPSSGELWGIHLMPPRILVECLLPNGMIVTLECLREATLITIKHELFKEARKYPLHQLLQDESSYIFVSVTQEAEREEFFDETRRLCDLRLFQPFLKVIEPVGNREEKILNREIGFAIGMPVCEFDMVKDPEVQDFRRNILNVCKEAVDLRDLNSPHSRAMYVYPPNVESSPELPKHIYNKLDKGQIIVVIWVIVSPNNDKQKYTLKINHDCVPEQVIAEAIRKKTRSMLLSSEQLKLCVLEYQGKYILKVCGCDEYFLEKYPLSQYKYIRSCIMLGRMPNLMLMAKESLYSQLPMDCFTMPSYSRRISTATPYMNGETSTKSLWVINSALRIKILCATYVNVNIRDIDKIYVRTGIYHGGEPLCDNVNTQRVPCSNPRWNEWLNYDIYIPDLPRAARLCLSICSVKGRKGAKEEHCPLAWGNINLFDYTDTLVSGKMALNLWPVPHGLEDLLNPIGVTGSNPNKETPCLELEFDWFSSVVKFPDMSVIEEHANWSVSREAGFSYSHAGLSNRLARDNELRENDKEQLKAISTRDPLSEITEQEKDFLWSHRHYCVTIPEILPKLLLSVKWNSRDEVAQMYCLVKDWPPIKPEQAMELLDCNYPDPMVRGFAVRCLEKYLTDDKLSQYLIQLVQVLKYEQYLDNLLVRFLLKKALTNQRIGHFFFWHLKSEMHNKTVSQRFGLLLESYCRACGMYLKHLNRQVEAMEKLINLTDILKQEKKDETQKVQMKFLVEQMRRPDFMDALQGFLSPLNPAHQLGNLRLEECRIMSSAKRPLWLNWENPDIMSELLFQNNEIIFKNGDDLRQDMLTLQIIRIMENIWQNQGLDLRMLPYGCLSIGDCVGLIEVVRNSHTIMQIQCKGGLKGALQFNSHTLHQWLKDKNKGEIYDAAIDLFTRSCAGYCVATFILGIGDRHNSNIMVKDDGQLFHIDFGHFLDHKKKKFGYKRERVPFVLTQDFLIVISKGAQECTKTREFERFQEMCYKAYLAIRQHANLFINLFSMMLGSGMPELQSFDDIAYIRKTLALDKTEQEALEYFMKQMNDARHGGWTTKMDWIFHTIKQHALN
PI3Kα (p110[H1047R]/p85) kinase, sequence (P27986 whole entry partner): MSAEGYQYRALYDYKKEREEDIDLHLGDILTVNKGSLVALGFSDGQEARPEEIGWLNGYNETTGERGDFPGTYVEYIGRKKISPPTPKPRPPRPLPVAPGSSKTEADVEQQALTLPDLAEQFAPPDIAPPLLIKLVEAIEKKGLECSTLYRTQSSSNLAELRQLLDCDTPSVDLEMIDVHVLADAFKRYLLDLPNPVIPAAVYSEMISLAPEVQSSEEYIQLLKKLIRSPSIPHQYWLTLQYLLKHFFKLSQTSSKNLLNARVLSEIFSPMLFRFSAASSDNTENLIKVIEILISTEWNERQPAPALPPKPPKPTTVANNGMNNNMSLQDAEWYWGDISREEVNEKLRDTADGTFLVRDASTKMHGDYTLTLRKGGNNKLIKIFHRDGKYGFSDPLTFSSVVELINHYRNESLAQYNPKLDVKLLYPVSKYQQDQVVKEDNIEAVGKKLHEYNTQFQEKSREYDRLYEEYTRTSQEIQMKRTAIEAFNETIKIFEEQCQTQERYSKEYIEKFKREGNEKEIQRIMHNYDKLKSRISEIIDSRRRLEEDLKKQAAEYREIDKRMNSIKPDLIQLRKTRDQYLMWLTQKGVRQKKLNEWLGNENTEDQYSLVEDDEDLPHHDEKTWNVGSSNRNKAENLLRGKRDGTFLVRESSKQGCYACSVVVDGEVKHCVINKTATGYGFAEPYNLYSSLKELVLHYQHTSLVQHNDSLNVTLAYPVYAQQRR

| SMILES | IC50 (WT cell line SK-BR-3 [1]) [µM] | IC50 [2] [µM] | selectivity: WT/H1047R [2] | IC50 (WT cell line SK-BR-3 [3]) [µM] |
| --- | --- | --- | --- | --- |
| CCn1c(-c2ccc(F)cc2)cc2c(C(C)Nc3ccc(Cl)nc3C(=O)O)cc(C)cc2c1=O (centres unmarked) [Example 81, 6-chloro-3-((1-(2-ethyl-3-(4-fluorophenyl)-7-methyl-1-oxo-1,2-dihydroisoquinolin-5-yl)ethyl)amino)picolinic acid] | > 10 | 0.215 | 17.6 | 1.87 |
| Cc1cc(C(C)Nc2ccccc2C(=O)O)c2cc(-c3cccc(C(C)(C)C#N)c3)n(C)c(=O)c2c1 (centres unmarked) [Example 5, 2-((1-(3-(3-(2-cyanopropan-2-yl)phenyl)-2,7-dimethyl-1-oxo-1,2-dihydroisoquinolin-5-yl)ethyl)amino)benzoic acid] | > 10 | 0.375 | 14.1 | 4.62 |
| Cc1cc(C(C)Nc2ccccc2C(=O)O)c2cc(-c3ccccc3F)n(C)c(=O)c2c1 (centres unmarked) [Example 6, 2-((1-(3-(2-fluorophenyl)-2,7-dimethyl-1-oxo-1,2-dihydroisoquinolin-5-yl)ethyl)amino)benzoic acid] | > 10 | 0.162 | 17.8 | 3.21 |
| CC#Cc1ccc(-c2cc3c(C(C)Nc4ccccc4C(=O)O)cc(C)cc3c(=O)n2C)cc1 (centres unmarked) [Example 52, 2-((1-(2,7-dimethyl-1-oxo-3-(4-(prop-1-yn-1-yl)phenyl)-1,2-dihydroisoquinolin-5-yl)ethyl)amino)benzoic acid] | > 10 | 0.375 | 25.2 | 7.19 |
| Cc1cc(C(C)Nc2ccccc2C(=O)O)c2cc(-c3ccc(F)cc3)n(C3COC3)c(=O)c2c1 (centres unmarked) [Example 95, 2-((1-(3-(4-fluorophenyl)-7-methyl-2-(oxetan-3-yl)-1-oxo-1,2-dihydroisoquinolin-5-yl)ethyl)amino)benzoic acid] | > 10 | 0.091 | 47.6 | 1.36 |
| Cc1cc(C(C)Nc2ccccc2C(=O)O)c2cc(-c3cccc(F)c3F)n(C)c(=O)c2c1 (centres unmarked) [Example 12, 2-((1-(3-(2,3-difluorophenyl)-2,7-dimethyl-1-oxo-1,2-dihydroisoquinolin-5-yl)ethyl)amino)benzoic acid] | > 10 | 0.175 | 38.2 | 2.16 |
| Cc1cc(C(C)Nc2ccccc2C(=O)O)c2cc(-c3ccccc3C)n(C)c(=O)c2c1 (centres unmarked) [Example 2, 2-((1-(2,7-dimethyl-1-oxo-3-(o-tolyl)-1,2-dihydroisoquinolin-5-yl)ethyl)amino)benzoic acid] | > 10 | 0.161 | 139.3 | 2.85 |
| Cc1cc(C(C)Nc2ccccc2C(=O)O)c2cc(-c3ccc(F)cc3F)n(C)c(=O)c2c1 (centres unmarked) [Example 11, 2-((1-(3-(2,4-difluorophenyl)-2,7-dimethyl-1-oxo-1,2-dihydroisoquinolin-5-yl)ethyl)amino)benzoic acid] | > 10 | 0.21 | 100.2 | > 10 |
| Cc1cc(C(C)Nc2ccccc2C(=O)O)c2cc(-c3nc4ccccc4s3)n(C)c(=O)c2c1 (centres unmarked) [Example 17, 2-((1-(3-(benzo[d]thiazol-2-yl)-2,7-dimethyl-1-oxo-1,2-dihydroisoquinolin-5-yl)ethyl)amino)benzoic acid] | > 10 | 0.255 | 30.5 | 0.795 |
| Cc1cc(C(C)Nc2ccccc2C(=O)O)c2cc(-c3cnc(C(C)(C)O)nc3)n(C)c(=O)c2c1 (centres unmarked) [Example 66, 2-((1-(3-(2-(2-hydroxypropan-2-yl)pyrimidin-5-yl)-2,7-dimethyl-1-oxo-1,2-dihydroisoquinolin-5-yl)ethyl)amino)benzoic acid] | > 10 | 1.11 | 19.3 | > 10 |
| Cc1cc(C(C)Nc2ccccc2C(=O)O)c2cc(C#Cc3cnn(C)c3)n(C)c(=O)c2c1 (centres unmarked) [Example 80, 2-((1-(2,7-dimethyl-3-((1-methyl-1H-pyrazol-4-yl)ethynyl)-1-oxo-1,2-dihydroisoquinolin-5-yl)ethyl)amino)benzoic acid] | > 10 | 0.304 | 10.8 | 3.08 |
| Cc1cc(C(C)Nc2ccccc2C(=O)O)c2cc(-c3ccc(C(C)(C)O)nc3)n(C)c(=O)c2c1 (centres unmarked) [Example 55, 2-((1-(3-(6-(2-hydroxypropan-2-yl)pyridin-3-yl)-2,7-dimethyl-1-oxo-1,2-dihydroisoquinolin-5-yl)ethyl)amino)benzoic acid] | > 10 | 0.725 | 35.9 | > 10 |
| Cc1cc(C(C)Nc2ccccc2C(=O)O)c2cc(C3=CCN(c4ccccc4)CC3)n(C)c(=O)c2c1 (centres unmarked) [Example 46, 2-((1-(2,7-dimethyl-1-oxo-3-(1-phenyl-1,2,3,6-tetrahydropyridin-4-yl)-1,2-dihydroisoquinolin-5-yl)ethyl)amino)benzoic acid] | > 10 | 0.48 | 23.0 | 5.07 |
| Cc1cc(C(C)Nc2ccccc2C(=O)O)c2cc(-c3ccc4nn(C)cc4n3)n(C)c(=O)c2c1 (centres unmarked) [Example 39, 2-((1-(2,7-dimethyl-3-(2-methyl-2H-pyrazolo[4,3-b]pyridin-5-yl)-1-oxo-1,2-dihydroisoquinolin-5-yl)ethyl)amino)benzoic acid] | > 10 | 0.922 | 11.5 | 6.17 |
| CC(Nc1ccccc1C(=O)O)c1cccc2c(=O)n(C)c(C#Cc3ccccc3)cc12 (centres unmarked) [Example 21, 2-((1-(2-methyl-1-oxo-3-(phenylethynyl)-1,2-dihydroisoquinolin-5-yl)ethyl)amino)benzoic acid] | > 10 | 0.121 | 11.1 | 5.88 |
| Cc1cc([C@@H](C)Nc2ccccc2C(=O)O)c2cc(-c3ccc(F)cc3)n(CC#N)c(=O)c2c1 [Example 64, (R)-2-((1-(2-(cyanomethyl)-3-(4-fluorophenyl)-7-methyl-1-oxo-1,2-dihydroisoquinolin-5-yl)ethyl)amino)benzoic acid] | > 10 | 0.113 | 21.9 | > 10 |
| Cc1cc([C@H](C)Nc2ccccc2C(=O)O)c2cc(-c3ccc(C(C)(C)O)nc3)n(C)c(=O)c2c1 [Example 57, (S)-2-((1-(3-(6-(2-hydroxypropan-2-yl)pyridin-3-yl)-2,7-dimethyl-1-oxo-1,2-dihydroisoquinolin-5-yl)ethyl)amino)benzoic acid] | > 10 | > 100 | <0.9 | > 10 |
| COc1ccc(-c2cc3c(C(C)Nc4ccccc4C(=O)O)cc(C)cc3c(=O)n2C)cc1 (centres unmarked) [Example 14, 2-((1-(3-(4-methoxyphenyl)-2,7-dimethyl-1-oxo-1,2-dihydroisoquinolin-5-yl)ethyl)amino)benzoic acid] | > 10 | 0.156 | 23.9 | 2.06 |
| Cc1cc(C(C)Nc2ccccc2C(=O)O)c2cc(-c3ccc(CN4CCOCC4)nc3)n(C)c(=O)c2c1 (centres unmarked) [Example 78, 2-((1-(2,7-dimethyl-3-(6-(morpholinomethyl)pyridin-3-yl)-1-oxo-1,2-dihydroisoquinolin-5-yl)ethyl)amino)benzoic acid] | > 10 | 2.21 | 29.7 | > 10 |
| Cc1cc(C(C)Nc2ccccc2C(=O)O)c2cc(C#Cc3cnn(-c4ccccc4)c3)n(C)c(=O)c2c1 (centres unmarked) [Example 94, 2-((1-(2,7-dimethyl-1-oxo-3-((1-phenyl-1H-pyrazol-4-yl)ethynyl)-1,2-dihydroisoquinolin-5-yl)ethyl)amino)benzoic acid] | > 10 | 0.387 | >258 | > 10 |
| Cc1cc(C(C)Nc2ccccc2C(=O)O)c2cc(-c3ccc(F)cc3)n(C3CCOC3)c(=O)c2c1 (centres unmarked) [Example 69, 2-((1-(3-(4-fluorophenyl)-7-methyl-1-oxo-2-(tetrahydrofuran-3-yl)-1,2-dihydroisoquinolin-5-yl)ethyl)amino)benzoic acid] | > 10 | 0.416 | 45.3 | > 10 |
| Cc1cc(C(C)Nc2ccccc2C(=O)O)c2cc(-c3cccnc3)n(C)c(=O)c2c1 (centres unmarked) [Example 37, 2-((1-(2,7-dimethyl-1-oxo-3-(pyridin-3-yl)-1,2-dihydroisoquinolin-5-yl)ethyl)amino)benzoic acid] | > 10 | 0.309 | 40.6 | > 10 |
| Cc1cc(C(C)Nc2ccccc2C(=O)O)c2cc(C#Cc3ccn(C)n3)n(C)c(=O)c2c1 (centres unmarked) [Example 88, 2-((1-(2,7-dimethyl-3-((1-methyl-1H-pyrazol-3-yl)ethynyl)-1-oxo-1,2-dihydroisoquinolin-5-yl)ethyl)amino)benzoic acid] | > 10 | 0.152 | 11.5 | 1.94 |
